The values below come from patent US20110269793A1, “METHOD FOR PREVENTING TAU PROTEIN AGGREGATION AND TREATING ALZHEIMER'S DISEASE WITH A QUINOLINE DERIVATIVE COMPOUND” (priority 2010, published 2011).

Like-named read-outs stand apart in the source and are kept apart here. Some results are limits rather than exact numbers.

Broadly, the Ki is a dissociation constant, usually derived from enzyme kinetics or from competition with a known ligand. A higher Ki goes with weaker binding. By Kd is commonly meant the free concentration of one partner at which half of the binding sites on the other are occupied at equilibrium, for simple one-to-one binding.

For series [1], the target named is T1, hTau protein (Homo sapiens, UniProt P10636). Particulars: hTau 230 nM, ^3H-AST 52 nM, cold ligand 10 nM to 10 μM.
Description: (§4) Subsequently, the tau protein, ^3H-AST and the quinolines are incubated for 4 hours at 25° C. under gentle agitation and the procedure depicted in FIG. 3 is followed.
Series [2] is described as follows: Octanol/water partition coefficient (Log P). The series is classed as physicochemical. The settings on record: for Liposolubility expressed as Log P (in words): as candidates to cross the BHE; for logP: n-octanol / PBS 0.1× buffer, read-out: Log P (experimental). As to the method:
Pharm. Hung. 62 (1-2): 55-64, wherein 2 phases are used, an aqueous phase comprising a buffer solution PBS 0.1× pH 7.4 that is saturated with an n-octanol solution that comprises the organic phase.
Stock solutions at 1.0 mg/mL of each quinoline being studied were prepared in PBS buffer 0.1× pH 7.4 saturated in octanol. […] Starting from these solutions, dilutions were made for a range concentration of between 1.0 mg/mL and 100 μg/mL to establish their maximum absorbance in the UV-visible region.
Then the tested quinolines were dissolved in PBS 0.1× pH 7.4 saturated in n-octanol and agitated for 30 min. at room temperature. Subsequently, this emulsion was left to settle for 48 h and a centrifugation at 3,000 rpm for 10 minutes was carried out to separate the phases. Both the octanol/water partition coefficient and Log P were established using the difference in the absorbance in the UV-visible region for each compound using equation 1:
[THQ in octanol]=[THQ start]−[THQ buffer] Éq. 1:
The concentrations for THQ start are established using equation 2: […]
Subsequently, the P quotient in established between both phases as described by equation 3: […]
Finally the partition coefficient is established by Log P.
For this test 2 controls were used: clidinium bromide that is a quaternary amine that is not liposoluble, and sodium thiopental, which is a very liposoluble barbituric anaesthetic. Each part of the test was done in triplicate.

For series [3], the target named is T1, hTau protein. Put plainly: biochemical.
Description: as §4
Series [4] has as its system tau protein from bovine brain. The settings on record: 7 days 37° C.; for Tau polymer concentration: tau 2.0 mg/mL, heparin 200 μg/mL, +control 3.00, −control 1.38. As to the method: (§1) Effect of the quinolines in the tau aggregation. Turbidimetric studies. Tau aggregation was monitored by means of its absorbance at λ 340 nm using UV spectrophotometry. Purified and highly concentrated tau protein from bovine brain (2.0 mg/mL) was re-suspended in MES 0.1 M pH 7.2 buffer and induced to polymerize in the form of PHFs in the presence of polyanions (heparin at a concentration of 200 μg/mL) at a final volume of 1.0 mL. This mixture was incubated at 37° C. and maintained under gentle agitation for 7 days. At the same time, another sample containing the tau protein, heparin (200 μg/mL) and the selected quinoline at different concentrations from 1.0 to 50 μM and a final volume of 1.0 mL was incubated in the same way, thus verifying the effect that quinolines have over tau aggregation. […] As an additional control the tau protein was replaced with water in order to measure the absorbance of these quinolines. Each sample was carried out in triplicate.
Effect of quinolines in tau aggregation. Sedimentation studies. After 7 days of incubation at 37° C. under gentle agitation, the sedimentation of the tau aggregates was conducted in the presence and in absence of quinolines. To this purpose, 400 μl were taken of each one of the samples prepared for the turbidimetric analysis and they were centrifuged at 42,000 g (18.000 rpm using the AH-650 rotor) at 37° C. for 25 min. The pellet obtained from each sample of this centrifugation was re-suspended in 50 μL of MES 0,1 M slightly alkaline (pH 7.2) buffer and the concentration of protein was established for each one of them. In this procedure, and because the sample volume is very small, a nanophotometer was used, measuring the concentration of the sedimented and re-suspended protein at λ 280 nm.

The subject of series [5] is tau protein from bovine brain. Particulars: THQ 55 1.0 to 50 μM, FIG. 11. The procedure: as §1
In series [6] the target is Human PHFs. Put plainly: Scatchard saturation test with ^3H-AST, PHFs. In kind it is binding. From the text: (§2) Interactions of quinolines with tau and in vitro displacement tests with H^3-AST. In previous laboratory tests by the inventor and also from other authors (Okamura N., Suemoto T., Furumoto S., Suzuki M., Shimadzu H., Akatsu H., Yamamoto T., Fujiwara H., Nemoto M., Maruyama M., Arai H., Yanai K., Sawada T., Kudo Y. (2005), Quinoline and becimidazole derivatives: candidate probes for in vivo imaging of tau pathology in Alzheimer's disease, J. Neurosci. 25: 10857-10862; Rojo L., Avila M., Chandia M., and Maccioni R. B. (2007), ^18F Lansoprazole as PET radiotracer, Chemical and biological studies towards the development of a New PET Radiotracer, International Conference on Clinical PET and Molecular Nuclear Medicine. 10-14 November, Bangkok) the Kd and binding maximums specific to some benzimidazols of clinical use were established, among them [O-methyl-3H]-astemizol (FIG. 2) through the interaction established with the tau protein. With this background Scatchard and displacement tests are performed with the quinolines mentioned before.
(§3) For the Scatchard test a fixed tau protein concentration (230 nM) and variable concentrations of ^3H-AST between 10 and 120 nM was used, leading to a final volume of 20 μL with 8% ethanol (EtOH 8%). The tau protein underwent treatment previous to this test, incubating the same at 37° C. under gentle agitation for 7 days. Subsequently the tau protein and ^3H-AST were incubated for 4 h at 25° C. under gentle agitation. Then this solution was filtered under vacuum for 10 minutes and the filtering papers were dried at room temperature, and transferred to a vial with 1.0 mL of scintillating liquid. It is then left in the dark and finally the counts per minute (cpm) are measured in a scintillating counting equipment.

For series [7], the target named is Human Tau (441a.a.) (Homo sapiens, UniProt P10636). Put plainly: Scatchard saturation test with ^3H-AST, tau filaments. Particulars: for Affinity to tau filaments (in words): saturation studies, FIG. 12. The series is classed as binding.
Excerpt: as §2, §3

For series [8], the target named is mGluR I (Homo sapiens, UniProt Q13255). Particulars: Yanamala et al. 2008; cited from earlier work.
Series [9] deals with mGluR 5 (Homo sapiens, UniProt P41594). Particulars: Yanamala et al. 2008; cited from earlier work.
[10] abbreviates: partition coefficient octanol/PBS buffer 0.1× pH 7.4, triplicate.
[11] abbreviates: tau filaments induced with heparin.

Sequence of Human Tau (441a.a.) (P10636 1-441 isoform P10636-8): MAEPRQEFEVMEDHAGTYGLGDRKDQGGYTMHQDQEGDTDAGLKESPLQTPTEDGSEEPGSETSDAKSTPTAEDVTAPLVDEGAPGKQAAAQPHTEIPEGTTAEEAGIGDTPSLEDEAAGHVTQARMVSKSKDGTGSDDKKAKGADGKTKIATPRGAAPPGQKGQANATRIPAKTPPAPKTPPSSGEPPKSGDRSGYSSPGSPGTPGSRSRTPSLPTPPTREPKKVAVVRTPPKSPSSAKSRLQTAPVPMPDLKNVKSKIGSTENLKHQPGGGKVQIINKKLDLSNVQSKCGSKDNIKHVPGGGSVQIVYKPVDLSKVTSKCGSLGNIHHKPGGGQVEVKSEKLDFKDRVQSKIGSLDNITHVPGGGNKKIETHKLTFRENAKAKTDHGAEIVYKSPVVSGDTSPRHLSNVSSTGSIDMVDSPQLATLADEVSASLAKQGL
T1 sequence (P10636 with tags, fused parts or gaps): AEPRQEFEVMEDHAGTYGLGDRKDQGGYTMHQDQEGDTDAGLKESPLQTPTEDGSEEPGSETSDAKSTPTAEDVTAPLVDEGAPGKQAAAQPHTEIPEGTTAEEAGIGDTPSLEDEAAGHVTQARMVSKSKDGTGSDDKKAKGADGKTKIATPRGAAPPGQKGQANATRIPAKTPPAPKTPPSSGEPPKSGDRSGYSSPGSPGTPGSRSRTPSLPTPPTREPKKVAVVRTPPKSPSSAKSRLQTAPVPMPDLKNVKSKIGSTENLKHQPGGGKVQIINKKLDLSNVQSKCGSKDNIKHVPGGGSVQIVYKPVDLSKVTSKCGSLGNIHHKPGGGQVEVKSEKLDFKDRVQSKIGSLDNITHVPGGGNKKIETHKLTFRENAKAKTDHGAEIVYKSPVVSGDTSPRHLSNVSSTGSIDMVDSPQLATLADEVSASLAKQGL
Sequence of mGluR I (Q13255 19-1194): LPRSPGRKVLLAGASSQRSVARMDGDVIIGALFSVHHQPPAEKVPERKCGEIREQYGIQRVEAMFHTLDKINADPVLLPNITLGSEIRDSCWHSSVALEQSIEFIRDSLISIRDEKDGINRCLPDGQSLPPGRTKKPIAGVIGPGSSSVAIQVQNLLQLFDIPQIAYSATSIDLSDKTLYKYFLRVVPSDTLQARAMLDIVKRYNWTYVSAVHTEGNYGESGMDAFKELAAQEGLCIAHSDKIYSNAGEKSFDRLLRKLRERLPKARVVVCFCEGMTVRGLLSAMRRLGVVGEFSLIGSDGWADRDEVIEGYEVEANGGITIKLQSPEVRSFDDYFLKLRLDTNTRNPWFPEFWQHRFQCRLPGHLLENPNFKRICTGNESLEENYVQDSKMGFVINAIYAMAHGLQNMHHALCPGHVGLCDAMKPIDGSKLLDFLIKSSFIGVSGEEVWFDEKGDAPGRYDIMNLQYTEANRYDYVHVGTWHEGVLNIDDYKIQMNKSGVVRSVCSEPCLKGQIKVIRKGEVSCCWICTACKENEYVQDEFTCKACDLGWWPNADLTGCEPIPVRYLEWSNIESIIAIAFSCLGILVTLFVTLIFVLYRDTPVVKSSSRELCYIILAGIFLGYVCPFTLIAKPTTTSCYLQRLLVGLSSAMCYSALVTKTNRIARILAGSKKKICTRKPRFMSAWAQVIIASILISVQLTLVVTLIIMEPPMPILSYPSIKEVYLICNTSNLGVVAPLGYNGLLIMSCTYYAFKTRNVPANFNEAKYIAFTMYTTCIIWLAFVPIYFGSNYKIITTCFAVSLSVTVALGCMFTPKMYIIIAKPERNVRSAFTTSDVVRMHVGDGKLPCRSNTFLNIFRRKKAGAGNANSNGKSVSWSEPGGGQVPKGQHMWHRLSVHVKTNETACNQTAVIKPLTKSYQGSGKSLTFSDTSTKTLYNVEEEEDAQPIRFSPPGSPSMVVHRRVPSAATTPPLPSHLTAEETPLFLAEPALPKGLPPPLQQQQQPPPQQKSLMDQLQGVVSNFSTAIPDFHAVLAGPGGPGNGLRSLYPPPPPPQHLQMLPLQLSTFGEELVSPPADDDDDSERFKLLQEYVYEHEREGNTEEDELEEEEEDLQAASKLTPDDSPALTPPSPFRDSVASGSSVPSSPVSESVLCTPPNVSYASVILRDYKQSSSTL
Sequence of mGluR 5 (P41594 21-1212): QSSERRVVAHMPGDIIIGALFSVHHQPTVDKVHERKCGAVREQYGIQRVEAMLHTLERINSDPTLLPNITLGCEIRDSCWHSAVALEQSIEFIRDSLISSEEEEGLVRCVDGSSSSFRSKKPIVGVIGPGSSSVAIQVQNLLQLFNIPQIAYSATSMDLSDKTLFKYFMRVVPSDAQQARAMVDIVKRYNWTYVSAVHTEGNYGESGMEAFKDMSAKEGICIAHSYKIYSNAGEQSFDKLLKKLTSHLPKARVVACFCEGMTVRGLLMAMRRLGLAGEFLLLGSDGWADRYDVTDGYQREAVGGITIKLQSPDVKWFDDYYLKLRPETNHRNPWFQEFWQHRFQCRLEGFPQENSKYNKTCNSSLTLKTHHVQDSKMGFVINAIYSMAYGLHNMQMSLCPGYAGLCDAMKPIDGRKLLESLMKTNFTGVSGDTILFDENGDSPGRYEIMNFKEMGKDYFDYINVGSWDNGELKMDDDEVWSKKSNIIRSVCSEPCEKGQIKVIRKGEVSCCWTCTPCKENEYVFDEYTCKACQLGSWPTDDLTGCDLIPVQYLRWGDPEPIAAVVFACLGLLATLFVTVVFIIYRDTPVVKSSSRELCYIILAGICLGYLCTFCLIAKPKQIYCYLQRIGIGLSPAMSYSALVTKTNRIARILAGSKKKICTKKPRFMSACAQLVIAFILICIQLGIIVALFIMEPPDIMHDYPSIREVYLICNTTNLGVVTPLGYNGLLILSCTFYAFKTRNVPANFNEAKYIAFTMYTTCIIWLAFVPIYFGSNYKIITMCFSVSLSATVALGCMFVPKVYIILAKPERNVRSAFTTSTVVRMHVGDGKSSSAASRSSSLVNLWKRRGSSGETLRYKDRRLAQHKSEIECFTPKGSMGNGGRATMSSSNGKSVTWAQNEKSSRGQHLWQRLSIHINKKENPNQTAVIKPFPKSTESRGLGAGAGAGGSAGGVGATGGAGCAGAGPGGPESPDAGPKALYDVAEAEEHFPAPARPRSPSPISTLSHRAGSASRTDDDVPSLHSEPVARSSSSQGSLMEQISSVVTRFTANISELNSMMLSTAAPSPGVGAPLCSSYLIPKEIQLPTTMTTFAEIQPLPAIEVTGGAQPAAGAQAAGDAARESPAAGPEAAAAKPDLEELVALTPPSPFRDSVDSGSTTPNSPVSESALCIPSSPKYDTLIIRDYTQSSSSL

For the compound `Cc1ccc2nc(-c3ccc(N)cc3)ccc2c1` [THQ 55, 2-(4-aminophenyl), 6-(methyl)quinoline], in series [1], the “Displacement of the radioligand” value is “do not displace the radioligand”. In addition, the “Liposolubility expressed as Log P (in words)” value in series [2] is reported as “optimal”. For the same compound, in series [2] (setting [10]), the logP is 1.97. The Ki in series [3] is above 10000 nM. Also, in series [4], the “Effect over the auto-aggregation of tau protein (sedimented protein at λ 280 nm)” value is on record as “pronounced inhibitory effect”. For the same compound, the values for the Tau polymer concentration in series [4] (compound 1.0 μM), in series [4] (compound 10 μM) and in [4] (compound 50.0 μM) were 2.72 + 0.002 mg/mL, 2.43 + 0.003 mg/mL and 0.79 + 0.004 mg/mL, respectively. Also, the “Inhibition of tau aggregation (absorbance at λ 340)” value in series [5] is reported as “high capacity to inhibit tau aggregation”.
With `COc1ccc(CCN2CCC(Nc3nc4ccccc4n3Cc3ccc(F)cc3)CC2)cc1` [^3H-AST, [O-methyl-3H]-astemizol], the Kd worked out at 3.94 nM in series [6] and 1.86 nM in [7] (setting [11]).
Regarding `Cc1ccc(-c2ccc3cccc(Br)c3n2)cc1` [THQ 9S, 2-(4-methylphenyl), 8-(bromo)quinoline], the logP in series [2] (setting [10]) is -0.214.
Consider `COc1ccc(CCN2CCC(Nc3nc4ccccc4n3Cc3ccc(F)cc3)CC2)cc1` [Ast, Astemizol, reference compound], for which, in series [7], the “Affinity to tau filaments (in words)” value is “high affinity”. Further, in series [4] (compound 10 μM), the Tau polymer concentration is 2.84 + 0.002 mg/mL.
As to `Cc1ccc(-c2ccc3cc(C)ccc3n2)cc1` [THQ 4S, 2-(4methylphenyl), 6-(methyl)quinoline], in [1], the “Displacement of the radioligand” value is given as “do not displace the radioligand”. Moreover, in series [2], the “Liposolubility expressed as Log P (in words)” value is “optimal”. For the same compound, the logP in series [2] (setting [10]) turned out to be 2.66. In addition, in [3], the Ki was above 10000 nM.
As for `O=C(Cc1ccccc1)c1ccc2nc3c(cc2c1)CCCO3` [R214127], the “Docking Energies” value in series [8] was -30.7 kJ/mol.
`COc1ccc2nc(-c3ccc(C)cc3)ccc2c1` [THQ 3S, 2-(4-methylphenyl), 6-(O-methyl)quinoline]: in series [2] (setting [10]), the “Log P (experimental)” value is 0.434 + 0.005.
Turning to `[3H]COc1ccc(CCN2CCC(Nc3nc4ccccc4n3Cc3ccc(F)cc3)CC2)cc1` [^3H-AST, [O-methyl-3H]-astemizol], the Bmax in [6] is listed as 13.07 nM; in series [7] (setting [11]), 5.7 pmol/nmol tau. Moreover, the values for the Bmax/Kd index in [6] and in series [7] were 3.316 and 3.00, respectively. In addition, the “Affinity to tau filaments (in words)” value in [7] was “high affinity”.
With `Cc1cccc(-c2ccc3cc(C)ccc3n2)c1` [THQ 12S, 2-(5-methylphenyl), 6-(methyl)quinoline], in series [2], the “Liposolubility expressed as Log P (in words)” value is “optimal”. Also, the logP in series [2] (setting [10]) amounted to 2.58.
For the compound `Cc1cccc(C#Cc2ccccc2)n1` [MPEP], in [9], the “Docking Energies” value was -32.5 kJ/mol.
